For data set [1], the system named is SARS-CoV-2. The arrangement: method as in PMID 39663451. Particulars: transgenic mouse model; efficacy comparable to nirmatrelvir; cited from earlier work.
The test system of data set [2] is SARS-CoV-2. The data set is described as follows: SARS-CoV-2 viral infection assay in Huh-7.5 cells. It is filed as cell-based, SARS-CoV-2 (strain: USA-WA1/2020). Particulars: n = 3.
Data set [3] in a line: Cytotoxicity in Huh-7.5 cells. Type of data set: cell-based, Homo sapiens. The settings on record: human, n = 3.
The next data set concerns Huh-7.5 cells. In words: Cytotoxicity in Huh-7.5 cells. It is filed as cell-based, Homo sapiens. The settings on record: at ≤ 3 μM compound.
A further data set concerns the target human RNMT-RAM complex (Homo sapiens, UniProt O43148). The data set is described as follows: Biochemical activity assay for the human RNMT-RAM complex (MTase-Glo).
For another data set, the target named is ZIKV NS5 (Zika virus, UniProt Q32ZE1). The data set is described as follows: Biochemical activity assay for ZIKV NS5 MTase (MTase-Glo). The protocol: final concentration, lab stock) during dialysis at 4 °C overnight against a buffer containing 50 mM Tris-HCl, pH 7.5, 20 mM imidazole, 500 mM NaCl, and 1 mM dithiothreitol (DTT). To remove the His6-SUMO tag, the protein sample was mixed with cOmplete His-Tag purification resin (Roche), incubated for 2 h at 4 °C, and loaded onto a gravity flow column. Since the His6-SUMO tag bound to the column material, the flow-through was collected containing untagged target protein. The target protein was further purified by a Superdex200 10/300 gel filtration column (GE Healthcare) in buffer (20 mM Tris-HCl, pH 7.5, 500 mM NaCl, 1 mM DTT). Fractions were analyzed by SDS-PAGE and Coomassie staining. Protein-containing fractions were pooled, flash-frozen in liquid nitrogen, and stored at -80 °C. […]
in 1X NSP14 reaction buffer (50 mM Tris-HCl, pH 7.5, 6 mM KCl, 1.25 mM MgCl2, 1 mM DTT, and 0.01% Tween-20) in a total reaction volume of 16 µl in absence or presence of increasing inhibitor compound concentrations for 45 min at 37 °C. SAH production was monitored using the bioluminescence-based MTase-Glo™ Methyltransferase Assay kit (Promega) following manufacturer’s instructions. The luminescence signal of each reaction was recorded in relative light units (RLUs) using a Synergy Neo plate reader (BioTek, Winooski, VT). […] IC50 values (mean from at least 3 independent experiments) were calculated using the GraphPad Prism software (Version 10.1.1) and a four-parameter logistic regression.
Biochemical activity assays for the human RNMT-RAM complex and ZIKV NS5 MTases Activity assays were performed in 1x NSP14 reaction buffer. For hRNMT-RAM, we used 15 nM enzyme, 2.5 µM GpppG and 2 µM SAM. For ZIKV NS5, we used 25 nM enzyme, 3 µM […]
Gppp[…]3, and 5 µM SAM. The enzymatic reaction was initiated with the addition of the enzyme in assay buffer and incubated at RT or 37 °C for 45 min, respectively. SAH was detected using the MTase-Glo™ assay.
Differential scanning fluorimetry (DSF)

Data set [4] can be described thus: SAH counterscreen inhibition (counterscreen of the MTase-Glo luminescence readout). For orientation: A counterscreen serves to expose hits that act by an unwanted route or on another target.
The mark [5] stands for this setting: fit of concentration-response curve.

Like-named read-outs stand apart in the source and are kept apart here.

Sequence of ZIKV NS5 (Q32ZE1 2517-2781): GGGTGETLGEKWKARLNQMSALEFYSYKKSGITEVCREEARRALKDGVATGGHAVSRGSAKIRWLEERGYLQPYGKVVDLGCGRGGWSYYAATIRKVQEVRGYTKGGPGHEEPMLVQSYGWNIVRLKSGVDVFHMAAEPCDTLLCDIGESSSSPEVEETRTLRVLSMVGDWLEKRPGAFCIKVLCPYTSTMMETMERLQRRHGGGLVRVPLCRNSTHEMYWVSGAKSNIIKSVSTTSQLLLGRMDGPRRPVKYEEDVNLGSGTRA
Sequence of human RNMT-RAM complex (O43148 whole entry): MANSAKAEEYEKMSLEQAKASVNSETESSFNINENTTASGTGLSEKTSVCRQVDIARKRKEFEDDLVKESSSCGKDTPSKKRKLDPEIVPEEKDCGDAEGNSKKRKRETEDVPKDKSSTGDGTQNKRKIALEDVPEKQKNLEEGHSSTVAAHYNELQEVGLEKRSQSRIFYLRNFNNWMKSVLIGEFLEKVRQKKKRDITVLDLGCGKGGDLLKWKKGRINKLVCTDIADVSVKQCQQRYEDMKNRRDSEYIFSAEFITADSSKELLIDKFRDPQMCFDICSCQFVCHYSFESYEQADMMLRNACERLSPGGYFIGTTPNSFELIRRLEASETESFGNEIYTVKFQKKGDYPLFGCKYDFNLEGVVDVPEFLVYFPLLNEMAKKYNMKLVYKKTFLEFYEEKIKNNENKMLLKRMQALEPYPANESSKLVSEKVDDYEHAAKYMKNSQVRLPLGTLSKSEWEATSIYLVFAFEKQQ
Sequence of human RNMT-RAM complex (Q9BTL3 whole entry partner): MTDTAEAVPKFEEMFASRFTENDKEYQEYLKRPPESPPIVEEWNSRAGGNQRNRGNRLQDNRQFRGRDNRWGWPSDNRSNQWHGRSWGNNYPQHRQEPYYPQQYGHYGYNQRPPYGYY

Take `Cc1c(S(=O)(=O)N2CCc3[nH]ncc3C2)cc(C(=O)NCc2c(F)ccc3occc23)n1C` [TDI-015051]: in the data set with SARS-CoV-2 [1], the “Inhibition of viral replication in vivo” value is “inhibited viral replication”.

For `Cc1cc(S(=O)(=O)c2cc(C(=O)NCc3c(F)ccc4cnn(C5CC5)c34)n(C)c2C)cc2cn[nH]c12` [TDI-016037], the EC50 in the data set on SARS-CoV-2 [2] (Huh-7.5 cells, read-out: Anti-SARS-CoV-2 activity EC50) is 8 nM; in the data set on SARS-CoV-2 [2] (Severe acute respiratory syndrome coronavirus 2, Huh7.5, read-out: Anti-SARS-CoV-2 activity EC50, Huh-7.5 cells), 8.6 nM. In addition, the CC50 in data set [3] is at least 3000 nM. Further, the Cytotoxicity entry in the data set with Huh-7.5 cells is “no cytotoxicity was detected”.

For `Cc1cc(C(=O)NCc2ccc(C(=O)NC(C)c3ccccc3C)nc2)ccc1O` (centres unmarked) [RU-0834146, CC1=CC(C(=O)NCC2=CN=C(C(=O)NC(C)C3=C(C)C=CC=C3)C=C2)=CC=C1O], the IC50 is over 250 µM at human RNMT-RAM complex (LUM % inhibition, read-out: hRNMT-RAM inhibition: IC50); over 250 µM at ZIKV NS5 (LUM % inhibition); over 125 µM in data set [4] (read-out: SAH counterscreen inhibition: IC50, LUM % inhibition). The “hRNMT-RAM inhibition: Hill slope” value on human RNMT-RAM complex (setting [5]) is 86. The Emax on human RNMT-RAM complex (read-out: hRNMT-RAM inhibition: Maximum response) came to 4.85%; at ZIKV NS5 (0.75 h, LUM % inhibition, read-out: ZIKV NS5 inhibition: Maximum measured), 11.2%. For the same compound, the “ZIKV NS5 inhibition: Hill slope” value at ZIKV NS5 (setting [5]) amounted to 10.6. Moreover, in data set [4] (LUM % inhibition), the “SAH counterscreen inhibition: Maximum response” value was 16.1%. The “SAH counterscreen inhibition: Hill slope” value in data set [4] (setting [5]) was -44.2.

For orientation: EC50 means the concentration at which the effect is half-maximal. The CC50 is the concentration that lowers cell viability or growth by half. As usually defined, the IC50 is the concentration needed to halve the response being measured.
